Assay results published in PubChem BioAssay (NCI).
Several values for one entry are separate records, joined by “and”; a condition that tells them apart may be missing. Equal entries are not always repeated.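 How tested: cells in 96-well plates exposed to compound for 48 hours at five concentrations. GI50 is the concentration that inhibits growth by half. Definition used: TGI = concentration required for complete inhibition of growth.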

Tests used:
Experiment in all cases: DTP human tumour cell line panel, 48 h
786-0 renal = tested on: 786-0 renal
RXF 393 renal = tested on: RXF 393 renal
HOP-92 NSCLC = tested on: HOP-92 NSCLC
NCI/ADR-RES ovarian = tested on: NCI/ADR-RES ovarian
COLO 205 colon = tested on: COLO 205 colon
M14 melanoma = tested on: M14 melanoma
SK-MEL-2 melanoma = tested on: SK-MEL-2 melanoma
IGROV1 ovarian = tested on: IGROV1 ovarian
SK-OV-3 ovarian = tested on: SK-OV-3 ovarian
SK-MEL-28 melanoma = tested on: SK-MEL-28 melanoma

Structure (SMILES)	GI50 (786-0 renal)	TGI (786-0 renal)	GI50 (RXF 393 renal)	TGI (RXF 393 renal)	GI50 (HOP-92 NSCLC)	TGI (HOP-92 NSCLC)	GI50 (NCI/ADR-RES ovarian)	TGI (NCI/ADR-RES ovarian)	GI50 (COLO 205 colon)	TGI (COLO 205 colon)	GI50 (M14 melanoma)	TGI (M14 melanoma)	GI50 (SK-MEL-2 melanoma)	TGI (SK-MEL-2 melanoma)	GI50 (IGROV1 ovarian)	TGI (IGROV1 ovarian)	GI50 (SK-OV-3 ovarian)	TGI (SK-OV-3 ovarian)	GI50 (SK-MEL-28 melanoma)	TGI (SK-MEL-28 melanoma)
OC(COc1cccc2ccccc12)CN1CCN(c2ccccc2Cl)CC1 (stereo not given)	15.6 µM	30.4 µM	16.5 µM	30.8 µM	2.47 µM	16.8 µM	13.2 µM	28.6 µM	11.9 µM	25 µM	14.3 µM	29.4 µM	15.4 µM	29.5 µM	10 µM	25.5 µM	16.8 µM	37.8 µM	14.5 µM	27.9 µM
O=C(CCl)Nc1cc(O)c2c(c1)C(=O)c1cccc(O)c1C2=O	1.99 µM	4.16 µM	1.72 µM	3.5 µM	1.79 µM	3.63 µM	2.47 µM	> 29.2 µM	1.55 µM	3.35 µM	1.25 µM	3.45 µM	1.49 µM	3.93 µM	0.942 µM	3.13 µM	2.61 µM	18.1 µM	2.79 µM	8.95 µM
COc1ccc2c(c1)CC[C@@H]1[C@@H]2CC[C@]2(C)C=C(/C=C/C(=O)c3ccccc3)C[C@@H]12	15.5 µM	29.1 µM	17.5 µM	34.5 µM	15.5 µM	29.7 µM	17.6 µM	35.1 µM	19.7 µM	40.4 µM	16.6 µM	34.3 µM	21 µM	41.5 µM	13.3 µM	27.4 µM	20.8 µM	38.9 µM	16.2 µM	31.7 µM
C1CC[N-]CC1.CC(=N\O)/C(C)=N/O.CC(=N\O)/C(C)=N/O.[CH2-]CCN1CCOCC1.[Co+2]	> 100 µM	> 100 µM	> 100 µM	> 100 µM	> 100 µM	> 100 µM	> 100 µM	> 100 µM	> 100 µM	> 100 µM	> 100 µM	> 100 µM	> 100 µM	> 100 µM	> 100 µM	> 100 µM	> 100 µM	> 100 µM	> 100 µM	> 100 µM
COc1cc(/C=N\O)nc(-c2ccccn2)c1		> 100 µM		> 100 µM		> 100 µM		> 49.6 µM		> 100 µM		> 45 µM		> 100 µM		13.2 µM		> 100 µM		> 100 µM
COc1cc(C2c3cc4c(cc3[C@@H](Nc3ccc(N)cc3)C3COC(=O)[C@H]23)OCO4)cc(OC)c1O (stereo not given in full)	0.514 µM	4.43 µM		13.2 µM	0.495 µM			44.5 µM	0.996 µM	47.7 µM	0.652 µM	18.6 µM		18.9 µM		16.4 µM	0.805 µM	17.3 µM		33.9 µM
O=C1c2ccn(CCCCN3CCC(O)CC3)c2C(=O)c2c1c(O)c1ccccc1c2O	13.1 µM	31.1 µM			8.95 µM	41.1 µM	78.8 µM	> 100 µM	37.2 µM	> 66.2 µM	1.95 µM	3.69 µM	2.45 µM	8.32 µM	2.53 µM	> 100 µM	41.3 µM	> 74.6 µM	13.3 µM	> 41 µM
Cc1ccc2c(c1)C(=O)c1c-2n(CCCN=[N+]=[N-])c(=O)c2cc([N+](=O)[O-])ccc12	29.8 µM	> 100 µM	> 100 µM	> 100 µM	30.2 µM	> 100 µM	94 µM	> 100 µM	> 100 µM	> 100 µM	> 100 µM	> 100 µM	> 100 µM	> 100 µM	19.2 µM	> 100 µM			> 100 µM	> 100 µM
Oc1c(CN2CCOCC2)cc(COCc2ccccc2)c2cccnc12	2.67 µM	19.2 µM	3.25 µM	72.7 µM	41.6 µM	> 100 µM	0.287 µM	1.88 µM	16 µM	67.2 µM	1.59 µM	7.84 µM	3.22 µM	59.1 µM	3.85 µM	> 100 µM	3 µM	22.2 µM	2.79 µM	> 100 µM
CC(=O)N1CCN(CCOc2ccc(C3CCN(C4=Nn5c(nnc5C(F)(F)F)CC4)CC3)cc2)CC1	25.1 µM	> 100 µM	19.4 µM	> 66 µM	7.64 µM	> 100 µM	37 µM	> 100 µM	11.5 µM	> 70.6 µM	11.1 µM	> 100 µM	33.7 µM	> 100 µM	17.4 µM	> 100 µM	21.1 µM	> 100 µM	21.4 µM	> 100 µM
O=C(c1ccccc1)C1C(C(=O)c2ccccc2)C(c2ccccc2)N(c2ccccc2)C1c1ccccc1 (stereo not given)		> 100 µM		> 100 µM		> 100 µM		> 100 µM		> 100 µM		> 100 µM		> 100 µM		> 100 µM				> 100 µM
CCCCCc1c(C)[nH]c(/C=C2\N=C(c3ccc[nH]3)C=C2OCc2ccccc2)c1C	0.052 µM and 0.0348 µM	0.378 µM and 0.226 µM	0.0697 µM and 0.0473 µM	0.768 µM and 0.374 µM	0.00832 µM and 0.0187 µM	0.0562 µM and 0.0647 µM	0.255 µM and 0.0776 µM	1.46 µM and 0.761 µM	0.0436 µM and 0.026 µM	0.661 µM and 0.159 µM	0.0296 µM and 0.0252 µM	0.0823 µM and 0.0748 µM	0.0297 µM and 0.0205 µM	0.0753 µM and 0.0609 µM	0.161 µM and 0.0596 µM	1.79 µM and 1.4 µM	0.326 µM and 0.0978 µM	2.48 µM and 0.983 µM	0.105 µM and 0.0459 µM	1.05 µM and 0.267 µM
CCOc1cc(C(C)(C)C)ccc1C1=N[C@@](C)(c2ccc(Cl)cc2)[C@@](C)(c2ccc(Cl)cc2)N1C(=O)N1CCN(CCS(C)(=O)=O)CC1	4 µM	14.5 µM	1.76 µM	3.74 µM	2.28 µM	8.82 µM	4.09 µM	24.4 µM	2.03 µM	4.01 µM	3.75 µM	14.6 µM	5.29 µM	18.3 µM	1.49 µM	6.54 µM	4.32 µM	16.1 µM	3.75 µM	14.3 µM
O=C1c2ccccc2-c2c1c1ccccc1c(=O)n2-c1ccccc1		10.6 µM		15 µM		> 50.3 µM		40.8 µM		> 100 µM		> 100 µM		50.6 µM		> 52.7 µM		26.4 µM		> 100 µM
N#Cc1c2c(c(-c3cccs3)n(C3OC(CO)C(O)C(O)C3O)c1=S)CCc1ccccc1-2 (stereo not given)	12.3 µM and 25.2 µM	> 100 µM		> 100 µM	3.35 µM	> 88.8 µM	13.4 µM and 39.5 µM	> 100 µM		> 100 µM	> 100 µM	> 100 µM		> 100 µM		> 100 µM		> 100 µM		> 100 µM
O=C(CC(=O)c1ccccc1)c1ccccc1	11 µM	43.6 µM	22 µM	88 µM	15.8 µM	51.3 µM	16.8 µM	44 µM	22.5 µM	> 100 µM	14.1 µM	44.7 µM	87 µM	> 100 µM	19.9 µM	> 100 µM	22.2 µM	> 100 µM	31 µM	> 100 µM
CCCCOc1ccc(/C=N/Nc2cc(C)nc3ccc(Cl)cc23)cc1	2 µM	3.76 µM	1.41 µM	2.74 µM	1.43 µM	2.99 µM	1.73 µM	3.36 µM	2.01 µM	4.03 µM	1.89 µM	3.91 µM	1.85 µM	3.43 µM	1.93 µM	3.63 µM	1.8 µM	3.27 µM	1.66 µM	3.08 µM
CO[C@H](C(=O)O)[C@@H]1Cc2cc3cc(OC4CC(OC5CC(O)C(O)C(C)O5)C(O)C(C)O4)c(C)c(O)c3c(O)c2C(=O)[C@H]1OC1CC(OC2CC(OC3CC(C)(O)C(O)C(C)O3)C(O)C(C)O2)C(O)C(C)O1 (stereo not given in full)	0.213 µM	> 32.5 µM	0.101 µM	0.436 µM	0.0736 µM	22.6 µM	10.1 µM	> 32.5 µM	0.285 µM	2.57 µM	0.443 µM	3.59 µM	0.335 µM	1.56 µM	0.231 µM	> 32.5 µM	0.445 µM	> 32.5 µM	0.191 µM	1.99 µM
CC[C@H](NC(=O)[C@H](CS(=O)(=O)CC1CC1)N[C@@H](c1ccc(F)cc1)C(F)(F)F)C(=O)C(=O)NC1CC1	> 100 µM	> 100 µM	> 100 µM	> 100 µM	98.7 µM	> 100 µM	> 100 µM	> 100 µM	> 100 µM	> 100 µM	> 100 µM	> 100 µM	> 100 µM	> 100 µM	> 100 µM	> 100 µM	> 100 µM	> 100 µM	> 100 µM	> 100 µM
O=c1c2c3c(sc2n2c(-c4ccc(Br)cc4)nnc2n1Cc1ccccc1)CCCC3	3.96 µM	14.6 µM			3.41 µM	16.1 µM	12.8 µM	36 µM	8.24 µM	22.8 µM			8.58 µM	21.2 µM	11.7 µM	26.9 µM	5.88 µM	18.8 µM	6.19 µM	19.9 µM
COc1ccc(NC(=O)/C=C(C)/C=C/C=C(C)\C=C\C2=C(C)CCCC2(C)C)cc1	90.3 µM	> 100 µM	25.5 µM	76.1 µM		30.4 µM	60.6 µM	> 100 µM	75.9 µM	> 100 µM	> 100 µM	> 100 µM	72.4 µM	> 100 µM	54.3 µM	> 100 µM	> 100 µM	> 100 µM	> 100 µM	> 100 µM
C#CCN(Cc1nc2cc(C(F)(F)F)ccc2nc1-c1ccccc1)c1ccc(F)c(F)c1	> 100 µM	> 100 µM	22.9 µM	92.5 µM	59.5 µM	> 100 µM	56.1 µM	> 100 µM	29.4 µM	> 100 µM	> 100 µM	> 100 µM			68.1 µM	> 100 µM	> 100 µM	> 100 µM	> 100 µM	> 100 µM
Cc1cc(O)cc2c1c(=O)c1ccccc1n2C		> 100 µM		> 100 µM		93.6 µM		> 100 µM		> 100 µM		> 100 µM		> 100 µM		> 100 µM		> 100 µM		
CN1CCN(CCOc2ccc(-c3cnc4c(-c5ccc(F)cc5)cnn4c3)cc2)CC1	1.73 µM	3.2 µM	1.65 µM	3.27 µM	1.43 µM	3.3 µM	2.2 µM	4.88 µM			1.96 µM	3.7 µM	2.09 µM	4.31 µM	1.63 µM	3.3 µM			1.87 µM	3.62 µM
N#Cc1cccc(OCc2ccccc2COc2cccc(C#N)c2)c1	12.3 µM	27.7 µM			2.36 µM	15.4 µM	50.1 µM	> 100 µM	33.8 µM	98.3 µM	43.9 µM	> 100 µM	> 100 µM	> 100 µM	> 100 µM	> 100 µM	35.7 µM	> 100 µM	> 100 µM	> 100 µM
Cc1nnc(-c2ccc(-c3nc4ccccc4o3)cc2)o1	> 100 µM	> 100 µM			> 100 µM	> 100 µM	> 100 µM	> 100 µM	76.8 µM	> 100 µM	> 100 µM	> 100 µM	> 100 µM	> 100 µM	> 100 µM	> 100 µM	29.7 µM	77.7 µM	> 100 µM	> 100 µM
Cc1cc(S(=O)(=O)Nc2nc3cc(Cl)ccc3o2)c(SCc2ccccc2)cc1Cl	20.1 µM	38 µM	30.9 µM	58.5 µM	18.7 µM	39.1 µM	28.5 µM	66.2 µM	21.2 µM	44.1 µM	22.1 µM	43.9 µM	20.5 µM	43.1 µM	19.8 µM	44.3 µM			27.3 µM	75.1 µM
